# Counter-ions that a name gives are not always drawn. Like-named read-outs stand apart in the source and are kept apart here.
# Assays:
# [1] = molecular target: T1, recombinant human Lp-PLA2 (Homo sapiens, UniProt Q13093); assay: Recombinant human Lp-PLA2 assay (rhLp-PLA2, PED6 assay); assay type: biochemical
# T1 sequence (Q13093 22-441): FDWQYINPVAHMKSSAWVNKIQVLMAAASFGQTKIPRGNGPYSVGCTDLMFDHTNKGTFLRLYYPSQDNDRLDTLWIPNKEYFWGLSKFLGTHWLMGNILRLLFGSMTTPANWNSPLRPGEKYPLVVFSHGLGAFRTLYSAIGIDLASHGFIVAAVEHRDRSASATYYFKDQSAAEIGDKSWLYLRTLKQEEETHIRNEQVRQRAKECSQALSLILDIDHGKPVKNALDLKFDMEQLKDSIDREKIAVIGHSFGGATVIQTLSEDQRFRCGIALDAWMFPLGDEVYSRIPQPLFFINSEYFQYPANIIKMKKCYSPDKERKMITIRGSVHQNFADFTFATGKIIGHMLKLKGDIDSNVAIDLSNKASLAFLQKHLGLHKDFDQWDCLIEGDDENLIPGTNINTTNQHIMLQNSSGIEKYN
# Excerpt: (1) Recombinant Human Lp-PLA2 Assay (rhLp-PLA2) (Also Referred to as “PED6” Assay)
# N-((6-(2,4-dinitrophenyl)amino)-hexanoyl)-2-(4,4-difluoro-5,7-dimethyl-4-bora-3a,4a-diaza-s-indacene-3-pentanoyl)-1-hexadecanoyl-sn-glycero-3-phosphoethanolamine, triethylammonium salt (PED6) is a commercially available fluorescently-labelled phospholipid, which is commercially available from Molecular Probes. There is a quenching […] position and a Bodipy fluorescein (FL) group in the sn2 position.
# The PED6 assay was run as an unquenched 10 μL assay. Compounds source plate was prepared by making 1:3 (by volume) serial dilution of the compounds into pure DMSO on 384-well microplate. […] 5 μL of recombinant human Lp-PLA2 enzyme (2 nM rhLp-PLA2 in assay buffer of 50 mM HEPES, pH7.4, 150 mM NaCl, 1 mM CHAPS) was added to each well of the plate with compounds. Plates were centrifuged for 10 sec at 500 rpm. […] Plates were centrifuged for 10 sec at 500 rpm. Plate was covered to protect from light and incubated for 20 min at room temperature. […] PIC50 data, curve and QC analysis was conducted by using XL fit module in Excel.
# [2] = molecular target: T2, Lp-PLA2 from plasma (pooled human plasma) (Homo sapiens, UniProt Q13093); assay: Lp-PLA2 human plasma assay (Thio-PAF assay); assay type: biochemical; conditions: text thresholds, read-out: pIC50 values in the thio-PAF assay (converted)
# T2 construct: 8 μL pooled human plasma; from tissue; host or cells: pooled human plasma
# T2 sequence (Q13093 22-441): T1 sequence (Q13093 22-441)
# Excerpt: (3) Lipoprotein-Associated Phospholipase A2 (Lp-PLA2) Human Plasma Assay (Also Referred to as “Thio-PAF Assay”)
# The human plasma assay utilizes a thioester analog of PAF (phosphatidylcholine), where hydrolysis yields to the formation of a phospholipid containing a free thiol group. The amount of thiol is quantitated continuously by reacting with CPM (7-diethylamino-3-(4′-maleimidylphenyl)-4-methylcoumarin), a maleimide which increases in fluoresence after Michael addition of thiols. This assay may detect the activity of Lp-PLA2 from plasma, as determined by specific inhibition by Lp-PLA2 inhibitors.
# The thio-PAF assay was run as a quenched 15 μL assay. Compounds source plate was prepared by making 1:3 (by volume) serial dilution of the compounds into pure DMSO on 384-well microplate. 0.01 μL of compounds on compound source plate were transferred to 384 well Greiner 784076 (black) low-volume plates by ECHO liquid dispenser. 8 μL pooled human plasma, which was previously aliquoted and frozen, was added. Plates were centrifuged for 10 sec at 500 rpm. After 30 minutes preincubation, 2 μL of substrate (2.5 mM thio-PAF, 3.2 mM NEM (N-ethylmaleimide) [made fresh daily in DMSO], and 32 μM CPM [from a DMSO stock] in assay buffer of 50 mM HEPES, pH7.4, 150 mM NaCl, 1 mM CHAPS was added to 384 well Greiner 784076 (black) low-volume plates by BRAVO liquid handling station. Plates were centrifuged for 10 sec at 500 rpm. Plate was covered to protect from light and incubated for 2 min at room temperature. Reaction was quenched with 5 μL of 5% aqueous trifluoroacetic acid (TFA). Plates were covered to protect from light and incubated for 40 min at room temperature. Plates were read at ex: 380/em: 485 using-Envision microplate reader. PIC50 data, curve and QC analysis was conducted by using XLFit module in Excel.
# [3] = text thresholds, upper limit for pIC50 in this assay is 9.3, read-out: pIC50 values in the PED6 assay (converted)
# [4] = upper limit for pIC50 obtained in this PED6 assay is 9.3, read-out: rhLp-PLA2 (PED6 assay) (pIC50) (converted)
SMILES,"IC50 [1, 3]","IC50 [1, 4]",IC50 [2]
"O=c1ccc(Cc2c[nH]c(NCCc3ccc(Oc4ccc(Cl)c(C(F)(F)F)c4)cc3)nc2=O)c[nH]1 [E212, 2-{2-[4-(4-Chloro-3-trifluoromethyl-phenoxy)-phenyl]-ethylamino}-5-(6-oxo-1,6-dihydro-pyridin-3-ylmethyl)-1H-pyrimidin-4-one]",≤ 10 nM,6.31 nM,≤ 100 nM
"COc1ncc(Cc2c[nH]c(OCCc3ccc(Oc4ccc(Cl)c(C(F)(F)F)c4)c(F)c3)nc2=O)cn1 [E172, 2-{[2-(4-{[4-chloro-3-(trifluoromethyl)phenyl]oxy}-3-fluorophenyl)ethyl]oxy}-5-{[2-(methyloxy)-5-pyrimidinyl]methyl}-4(1H)-pyrimidinone]",≤ 1 nM,–,≤ 100 nM
"CN(CCc1ccc(Oc2ccc(Cl)c(C(F)(F)F)c2)cc1)c1nc(=O)c(Cc2cncnc2)cn1C [E196, 2-({2-[4-(4-Chloro-3-trifluoromethyl-phenoxy)-phenyl]-ethyl}-methyl-amino)-1-methyl-5-pyrimidin-5-ylmethyl-1H-pyrimidin-4-one]",≤ 10 nM,–,≤ 1000 nM
"Cn1cc(Cc2cncnc2)c(=O)nc1OCCc1ccc(Oc2ccc(Cl)c(C(F)(F)F)c2)c(F)c1 [E141, 2-{[2-(4-{[4-chloro-3-(trifluoromethyl)phenyl]oxy}-3-fluorophenyl)ethyl]oxy}-1-methyl-5-(5-pyrimidinylmethyl)-4(1H)-pyrimidinone]",≤ 1 nM,–,≤ 100 nM
"Cc1ccc(Cc2c[nH]c(NCCc3ccc(Oc4ccc(Cl)c(C(F)(F)F)c4)cc3)nc2=O)cn1 [E210, 2-{2-[4-(4-Chloro-3-trifluoromethyl-phenoxy)-phenyl]-ethylamino}-5-(6-methyl-pyridin-3-ylmethyl)-1H-pyrimidin-4-one]",≤ 10 nM,–,≤ 100 nM
"Cc1nnc(Cc2c[nH]c(OCCc3ccc(Oc4ccc(Cl)c(C(F)(F)F)c4)cc3)nc2=O)o1 [E134, 2-{[2-(4-{[4-chloro-3-(trifluoromethyl)phenyl]oxy}phenyl)ethyl]oxy}-5-[(5-methyl-1,3,4-oxadiazol-2-yl)methyl]-4(1H)-pyrimidinone]",≤ 10 nM,2.51 nM,≤ 100 nM
"Cn1cc(Cc2cn(C)c(SCc3ccc(Oc4cc(Cl)ccn4)cc3)nc2=O)cn1 [E93, 2-[({4-[(4-chloro-2-pyridinyl)oxy]phenyl}methyl)thio]-1-methyl-5-[(1-methyl-1H-pyrazol-4-yl)methyl]-4(1H)-pyrimidinone]",≤ 1 nM,–,≤ 100 nM
"Cc1ccc(Oc2ccc(CCOc3nc(=O)c(Cc4cncnc4)c[nH]3)cc2)cc1Cl [E150, 2-[(2-{4-[(3-chloro-4-methylphenyl)oxy]phenyl}ethyl)oxy]-5-[pyrimidin-5-ylmethyl]-4(1H)-pyrimidinone]",≤ 1 nM,–,≤ 100 nM
"COc1ncc(Cc2cn(C)c(SCc3ccc(Oc4ccc(Cl)c(C(F)(F)F)c4)c(C#N)c3)nc2=O)cn1 [E85, 2-{[4-chloro-3-(trifluoromethyl)phenyl]oxy}-5-{[(1-methyl-5-{[2-(methyloxy)-5-pyrimidinyl]methyl}-4-oxo-1,4-dihydro-2-pyrimidinyl)thio]methyl}benzonitrile]",≤ 1 nM,–,≤ 100 nM
"COc1ncc(Cc2cn(C)c(SCc3ccc(Oc4ccc(Cl)c(C(F)(F)F)c4)cc3)nc2=O)cn1 [E75, 2-{[(4-{[4-chloro-3-(trifluoromethyl)phenyl]oxy}phenyl)methyl]thio}-1-methyl-5-{[2-(methyloxy)-5-pyrimidinyl]methyl}-4(1H)-pyrimidinone]",≤ 1 nM,–,≤ 100 nM
"Cn1cc(Cc2c[nH]c(OCCc3ccc(Oc4cc(Cl)cc(C(F)(F)F)c4)cc3)nc2=O)cn1 [E162, 2-{[2-(4-{[3-chloro-5-(trifluoromethyl)phenyl]oxy}phenyl)ethyl]oxy}-5-[(1-methyl-1H-pyrazol-4-yl)methyl]-4(1H)-pyrimidinone]",≤ 10 nM,–,≤ 100 nM
"COc1ncc(Cc2c[nH]c(OCCc3ccc(Oc4ccc(Cl)c(C(F)(F)F)n4)cc3)nc2=O)cn1 [E161, 2-(4-((5-chloro-6-(trifluoromethyl)pyridin-2-yl)oxy)phenethoxy)-5-((2-methoxypyrimidin-5-yl)methyl)pyrimidin-4(1H)-one]",≤ 10 nM,–,≤ 1000 nM
"O=c1nc(NCCc2ccc(Oc3ccc(Cl)c(C(F)(F)F)c3)cc2)[nH]cc1Cc1ccnnc1 [E214, 2-{2-[4-(4-chloro-3-trifluoromethyl-phenoxy)-phenyl]ethylamino}-5-pyridazin-4-ylmethyl-1H-pyrimidin-4-one]",≤ 10 nM,–,≤ 100 nM
"CCc1cn(CC)c(OCCc2ccc(Oc3ccc(Cl)c(C(F)(F)F)c3)cc2)nc1=O [E130, 2-{[2-(4-{[4-chloro-3-(trifluoromethyl)phenyl]oxy}phenyl)ethyl]oxy}-1,5-diethyl-4(1H)-pyrimidinone]",–,2.51 nM,≤ 1000 nM
O=c1nc(NCCc2ccc(Oc3ccc(C(F)(F)F)cc3)cc2)[nH]cc1Cc1cncnc1 [E204],≤ 10 nM,–,≤ 100 nM
"Cn1cc(Cc2cn(C)c(SCCc3ccc(Oc4ccc(Cl)c(C(F)(F)F)c4)cc3)nc2=O)cn1 [E113, 2-{[2-(4-{[4-chloro-3-(trifluoromethyl)phenyl]oxy}phenyl)ethyl]thio}-1-methyl-5-[(1-methyl-1H-pyrazol-4-yl)methyl]-4(1H)-pyrimidinone]",–,–,≤ 100 nM
"Cn1cc(Cc2cncnc2)c(=O)nc1CCc1ccc(Oc2ccc(Cl)c(C(F)(F)F)c2)cc1 [E4, 2-[2-(4-{[4-Chloro-3-(trifluoromethyl)phenyl]oxy}phenyl)ethyl]-1-methyl-5-(5-pyrimidinylmethyl)-4(1H)-pyrimidinone]",–,–,≤ 1000 nM
"COc1ncc(Cc2c[nH]c(OCCc3cc(F)c(Oc4ccc(Cl)c(C(F)(F)F)c4)c(F)c3)nc2=O)cn1 [E176, 2-{[2-(4-{[4-chloro-3-(trifluoromethyl)phenyl]oxy}-3,5-difluorophenyl)ethyl]oxy}-5-{[2-(methyloxy)-5-pyrimidinyl]methyl}-4(1H)-pyrimidinone]",–,–,≤ 100 nM
"COc1ncc(Cc2c[nH]c(NCCc3ccc(Oc4ccc(C(F)(F)F)cn4)cc3)nc2=O)cn1 [E186, 5-(2-methoxy-pyrimidin-5-ylmethyl)-2-{2-[4-(5-trifluoromethyl-pyridin-2-yloxy)phenyl]-ethylamino}-1H-pyrimidin-4-one]",–,–,≤ 1000 nM
"COc1ncc(Cc2cn(C)c(CCc3ccc(Oc4ccc(Cl)c(C(F)(F)F)c4)cc3)nc2=O)cn1 [E3, 2-[2-(4-{[4-Chloro-3-(trifluoromethyl)phenyl]oxy}phenyl)ethyl]-1-methyl-5-{[2-(methyloxy)-5-pyrimidinyl]methyl}-4(1H)-pyrimidinone]",–,–,≤ 1000 nM
O=c1nc(OCCc2cc(F)c(Oc3cnc(C(F)(F)F)nc3)c(F)c2)[nH]cc1Cc1cncnc1 [E168],–,–,≤ 100 nM
"Cn1cc(Cc2cn(C)c(SCCc3ccc(Oc4cccc(C(F)(F)F)c4)c(C#N)c3)nc2=O)cn1 [E92, 5-[2-({1-methyl-5-[(1-methyl-1H-pyrazol-4-yl)methyl]-4-oxo-1,4-dihydro-2-pyrimidinyl}thio)ethyl]-2-{[3-(trifluoromethyl)phenyl]oxy}benzonitrile, trifluoroacetic acid salt]",–,–,≤ 100 nM
